Data published in article PMC7442133, “Reduced treatment frequencies with bumped kinase inhibitor 1369 are effective against porcine cystoisosporosis” (International Journal for Parasitology: Drugs and Drug …, 2020).
Where “and” joins values, the source holds several entries; their conditions need not be identical. Equal values may be shown once. Entries after “also recorded” stand apart in the source; their conditions may differ.

Tests used:
[1] = Body weight development of experimentally infected suckling piglets; assay type: in vivo; settings: for BW SD 8 / BW SD 15 / BW SD 22 / BW SD 29 / BW SD 1: SD in brackets; for BW SD 1: before treatment
[2] = Post-treatment observations for adverse events; assay type: in vivo, piglets
Protocol: For both experiments, post-treatment observations for any adverse events such as swelling/bleeding of the iron injection site, inability to stand, walk, suckle or other abnormal behavior, including dyspnoea, vomiting, limping, lateral recumbency, signs of pain, distress or neurological alterations ([Oldham, 1985]), were conducted under blinded conditions by a veterinarian at 2 h, 24 h and 48 h after treatment. In addition, all piglets were observed daily during the course of the studies to ensure good health, and any condition that required veterinary intervention was recorded and addressed.

[3] = Exp I group A: 1 × 20 mg/kg BW, SD 3 (0 dpi)
[4] = Exp I group B: 1 × 20 mg/kg BW, SD 5 (2 dpi)
[5] = Exp I group C: 2 × 20 mg/kg BW, SD 5 & 7 (2 & 4 dpi)
[6] = Exp II group W: 1 × 20 mg/kg BW, SD 5 (2 dpi)
[7] = Exp II group X: 1 × 10 mg/kg BW, SD 5 (2 dpi)
[8] = Exp II group Y: 1 × 5 mg/kg BW, SD 5 (2 dpi)

CCOc1ccc2cc(-c3nn(CC4CCN(C)CC4)c4ncnc(N)c34)ccc2n1 [BKI 1369]
BW SD 8 [1, 3]: 2604 [283.8] g
BW SD 15 [1, 3]: 4198.4 [573.9] g
BW SD 22 [1, 3]: 6082 [750.1] g
BW SD 29 [1, 3]: 7956 [750.22] g
BW SD 1 [1, 3]: 1276 [227.4] g
BWG SD 8 to 15 (mean body weight gain, acute phase of infection) ([1]; Exp I group A: 1 × 20 mg/kg BW, SD 3 (0 dpi), control D 1042 g, 20 mg/kg): 1594 g and 1594.4 g
BW SD 8 [1, 4]: 2530.9 [362.3] g
BW SD 15 [1, 4]: 4292.7 [724.9] g
BW SD 22 [1, 4]: 5892.7 [1225.6] g
BW SD 29 [1, 4]: 7721.8 [1710.2] g
BW SD 1 [1, 4]: 1214.5 [206.9] g
BWG SD 8 to 15 (mean body weight gain, acute phase of infection) ([1]; Exp I group B: 1 × 20 mg/kg BW, SD 5 (2 dpi), control D 1042 g, 20 mg/kg): 1762 g and 1761.8 g
BW SD 8 [1, 5]: 2494.5 [328.9] g
BW SD 15 [1, 5]: 4267.3 [491.6] g
BW SD 22 [1, 5]: 5950.9 [619.6] g
BW SD 29 [1, 5]: 7867.3 [851.9] g
BW SD 1 [1, 5]: 1163.6 [205.5] g
BWG SD 8 to 15 (mean body weight gain, acute phase of infection) ([1]; Exp I group C: 2 × 20 mg/kg BW, SD 5 & 7 (2 & 4 dpi), control D 1042 g, 20 mg/kg): 1773 g and 1772.7 g
BW SD 8 [1, 6]: 3148.0 [610.4] g
BW SD 15 [1, 6]: 5140.0 [830.8] g
BW SD 22 [1, 6]: 6952.0 [1204.0] g
BW SD 29 [1, 6]: 9242.0 [1250.4] g
BW SD 1 [1, 6]: 1606.0 [347.4] g
BWG SD 8 to 15 (mean body weight gain, acute phase of infection) ([1]; Exp II group W: 1 × 20 mg/kg BW, SD 5 (2 dpi), control Z 389 g, 20 mg/kg): 1992 g and 1992.0 g
BW SD 8 [1, 7]: 1968.0 [632.7] g
BW SD 15 [1, 7]: 4606.0 [745.5] g
BW SD 22 [1, 7]: 6502.0 [1068.4] g
BW SD 29 [1, 7]: 8752.0 [2465.6] g
BW SD 1 [1, 7]: 1472.0 [353.0] g
BWG SD 8 to 15 (mean body weight gain, acute phase of infection) ([1]; Exp II group X: 1 × 10 mg/kg BW, SD 5 (2 dpi), control Z 389 g, 10 mg/kg): 1638 g and 1638.0 g
BW SD 8 [1, 8]: 2771.1 [654.5] g
BW SD 15 [1, 8]: 3891.1 [990.8] g
BW SD 22 [1, 8]: 5782.2 [1340.1] g
BW SD 29 [1, 8]: 8055.6 [1626.8] g
BW SD 1 [1, 8]: 1444.4 [391.1] g
BWG SD 8 to 15 (mean body weight gain, acute phase of infection) ([1]; Exp II group Y: 1 × 5 mg/kg BW, SD 5 (2 dpi), control Z 389 g, 5 mg/kg): 1120 g and 1120.0 g
Body weight gain compared to control piglets (in words) ([1]; irrespective of time points and frequencies of treatment): significant increase in body weight gain
Treatment-related adverse effects that required veterinary intervention ([2]; 5, 10 or 20 mg/kg BW, one or two oral doses, whole study period): No piglets showed treatment-related adverse effects; also recorded: without any adverse effects
Visible signs of toxicity, clinically relevant systemic or regional/local responses related to treatment ([2]; treated groups, both experiments): Neither visible signs of toxicity nor clinically relevant systemic or regional/local responses related to treatment were observed
